Laboratory results from patent US20100226885A1, “METHOD OF TREATING HEPATITIS C PATIENTS” (priority 2007, published 2010).

Legend:
[1] = system: Hepatitis C; conditions: by week four; VX-950 alone; cited from earlier work
[2] = system: HCV genotype 1; experiment: Example 2: Phase II study of treatment-naïve patients, plasma HCV RNA by Roche COBAS TaqMan HCV/HPS assay; format: in vivo, human; conditions: addition to PegIntron/REBETOL combination therapy, 28 and 48 week regimens
Protocol: The effectiveness of a lead-in period with interferon and ribavirin combination therapy prior to the addition of an HCV protease inhibitor was further evaluated in a study of 595 treatment-naïve patients infected with HCV genotype 1. In this study, boceprevir (compound of Formula 1a) is being evaluated, compared to a control of PegIntron® (peginterferon alfa-2b) at 1.5 mcg/kg QW plus REBETOL® (ribavirin, USP) (800-1400 mg/day) for a treatment period of 48 weeks, in three treatment regimens: • P/R Lead-In +B/P/R: • PegIntron (1.5 mcg/kg QW) in combination with REBETOL (800-1400 mg/day) during a first treatment period of 4 weeks followed by adding boceprevir (800 mg TID) to the combination during a second treatment period of 24 or 44 weeks; thus, the total treatment time with PegIntron and REBETOL was 28 or 48 weeks; • B/P/R: • boceprevir (800 mg TID) in combination with PegIntron (1.5 mcg/kg QW) plus REBETOL (800-1400 mg/day) for a single treatment period of 28 or 48 weeks; and • B/P/Low-dose R: • boceprevir (800 mg TID) in combination with PegIntron (1.5 mcg/kg QW) plus low-dose REBETOL (400-1000 mg/day) for a single treatment period of 48 weeks. […]
Plasma HCV RNA levels were measured using the Roche COBAS TaqMan® HCV/HPS assay (Roche Molecular Systems, Somerville, N.J.).

SMILES | treated patients showing evidence of negative HCV status [1] [%] | SVR compared to the PegIntron/REBETOL control [2]
CCC[C@H](NC(=O)[C@@H]1[C@H]2CCC[C@H]2CN1C(=O)[C@@H](NC(=O)[C@@H](NC(=O)c1cnccn1)C1CCCCC1)C(C)(C)C)C(=O)C(=O)NC1CC1 [VX-950] | 79 | 
CC(C)(C)NC(=O)N[C@H](C(=O)N1CC2C([C@H]1C(=O)NC(CC1CCC1)C(=O)C(N)=O)C2(C)C)C(C)(C)C (some centres unmarked) [boceprevir] |  | markedly increased SVR
